# From publication PMC5462101 (Future medicinal chemistry, 2015)
# Assays:
# [1] = target: T1, soybean lipoxygenase (Glycine max, UniProt P08170); experiment: Inhibition of soybean lipoxygenase; type: biochemical; conditions: sodium linoleate 0.1 mM, read-out: Lipoxygenase inhibitory activity (IC50)
# T1 construct: purchased Sigma
# T1 sequence (P08170 1-839): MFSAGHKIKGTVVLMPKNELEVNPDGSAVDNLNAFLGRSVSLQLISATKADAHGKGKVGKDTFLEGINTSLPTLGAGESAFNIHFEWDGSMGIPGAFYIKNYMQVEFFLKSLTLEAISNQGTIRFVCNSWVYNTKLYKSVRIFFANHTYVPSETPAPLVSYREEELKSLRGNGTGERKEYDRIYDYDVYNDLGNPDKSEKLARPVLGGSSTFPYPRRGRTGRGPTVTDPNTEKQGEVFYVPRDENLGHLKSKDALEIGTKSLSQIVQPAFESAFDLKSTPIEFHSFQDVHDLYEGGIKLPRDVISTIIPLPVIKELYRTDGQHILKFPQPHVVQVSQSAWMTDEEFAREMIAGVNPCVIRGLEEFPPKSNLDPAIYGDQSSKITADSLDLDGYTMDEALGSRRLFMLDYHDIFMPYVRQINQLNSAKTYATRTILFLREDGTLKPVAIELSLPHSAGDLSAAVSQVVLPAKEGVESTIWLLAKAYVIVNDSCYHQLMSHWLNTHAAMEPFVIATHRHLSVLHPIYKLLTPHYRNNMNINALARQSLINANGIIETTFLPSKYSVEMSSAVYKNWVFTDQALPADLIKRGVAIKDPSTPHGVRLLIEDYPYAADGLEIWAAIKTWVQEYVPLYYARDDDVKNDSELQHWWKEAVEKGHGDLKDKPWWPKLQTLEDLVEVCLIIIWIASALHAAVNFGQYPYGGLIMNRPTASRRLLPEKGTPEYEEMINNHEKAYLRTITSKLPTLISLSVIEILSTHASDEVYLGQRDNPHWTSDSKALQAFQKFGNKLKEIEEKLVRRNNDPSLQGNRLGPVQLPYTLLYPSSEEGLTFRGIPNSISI
# Method: The substituted pteridines prepared were assayed for inhibition of soybean lipoxygenase (Table 1) (Supplementary Information). Many studies have used readily obtainable soybean lipoxygenase, which is a homologue of mammalian lipoxygenase and well examined. The availability of soybean LOX and its well-characterized crystal structure led to its use in this study.
# Determination of soybean lipoxygenase inhibition
# A solution in DMSO of each compound to be tested was incubated at room temperature with sodium linoleate (0.1 mM) and a solution of soybean lipoxygenase (EC 1.13.11.12) (1:9 x 10^4 w/v in saline, 0.2 mL, Sigma). The conversion of sodium linoleate to 13-hydroperoxylinoleic acid was monitored by observation at 234 nm and compared with the value of appropriate standard inhibitor (Table 1).
# IC50 determinations. OriginPro 8 was used to determine IC50 values from the sigmoidal line fitted to a graph of log[concentration] against the average percentage inhibition from two independent experiments, with at least 6 different concentrations. The SEM is the calculated standard error in the IC50 value of the fitted line.
# [2] = Reducing ability in DPPH assay; conditions: compound 100 μM
# Method: Previous work has shown that pterins, their dihydro- and their tetrahydro-derivatives can each be antioxidants or pro-oxidants, depending on the particular conditions. In the present study, several assays were used to assess in vitro antioxidant activity in order to obtain representative information; each method involves the generation of a different radical.
# Determination of reducing activity using 1,1-diphenyl-2-picrylhydrazyl radical (DPPH)
# To a solution of DPPH in absolute ethanol was added an equal volume of the compound to be tested dissolved in DMSO (20 µL). From a stock solution (10 mM) was prepared a final solution of 100 µM for evaluation of the compounds. The absorbance at 517 nm was recorded after 20 and 60 min at room temperature (Table 2).
smiles,measurement,setting,value
"CN1CCN(c2nc(NCc3cccs3)c3nccnc3n2)CC1 [Compound 18f, 2-(4-methylpiperazin-1-yl)-N-(thiophen-2-ylmethyl)pteridin-4-amine]",IC50,[1],55 ± 0.8 µM
same,RA (%) 100μM 20 min,[2]; 20 min,6%
same,RA (%) 100μM 60 min,[2]; 60 min,4%
